{"source": "ChEMBL document CHEMBL5055685", "about": "“Discovery of the First Potent IDO1/IDO2 Dual Inhibitors: A Promising Strategy for Cancer Immunotherapy” (J Med Chem, 2021)", "key": {"[1]": {"target": "Epithelial discoidin domain-containing receptor 1 (Homo sapiens) (UniProt Q08345)", "sequence (Q08345 whole entry, the tested form may be a part)": "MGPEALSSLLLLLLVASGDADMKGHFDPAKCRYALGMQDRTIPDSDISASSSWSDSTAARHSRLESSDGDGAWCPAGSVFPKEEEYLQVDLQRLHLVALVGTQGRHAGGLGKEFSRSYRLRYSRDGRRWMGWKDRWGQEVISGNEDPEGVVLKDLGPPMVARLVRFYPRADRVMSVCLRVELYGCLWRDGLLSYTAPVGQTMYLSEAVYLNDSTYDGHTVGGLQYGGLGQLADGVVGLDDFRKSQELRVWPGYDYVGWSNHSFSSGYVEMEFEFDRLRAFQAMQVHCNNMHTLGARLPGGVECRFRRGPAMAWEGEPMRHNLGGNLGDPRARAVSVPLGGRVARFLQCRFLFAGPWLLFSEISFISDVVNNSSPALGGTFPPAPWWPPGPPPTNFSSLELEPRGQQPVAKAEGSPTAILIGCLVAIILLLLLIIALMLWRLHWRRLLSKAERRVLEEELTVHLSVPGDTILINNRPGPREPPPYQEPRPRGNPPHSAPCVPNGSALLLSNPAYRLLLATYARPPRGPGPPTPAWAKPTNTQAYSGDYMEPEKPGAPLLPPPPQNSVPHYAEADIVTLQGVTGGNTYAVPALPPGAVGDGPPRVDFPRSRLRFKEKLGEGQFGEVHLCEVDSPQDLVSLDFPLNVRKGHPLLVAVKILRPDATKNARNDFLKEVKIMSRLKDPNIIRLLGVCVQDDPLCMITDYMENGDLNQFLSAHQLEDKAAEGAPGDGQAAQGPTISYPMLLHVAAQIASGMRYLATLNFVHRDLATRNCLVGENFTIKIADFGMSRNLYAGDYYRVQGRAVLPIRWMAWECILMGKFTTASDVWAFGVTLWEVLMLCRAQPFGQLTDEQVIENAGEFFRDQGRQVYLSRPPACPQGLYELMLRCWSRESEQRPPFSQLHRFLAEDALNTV", "assay": "Inhibition of DDR1 (unknown origin) at 1 uM"}, "[2]": {"target": "TGF-beta receptor type-1 (Homo sapiens) (UniProt P36897)", "sequence (P36897 whole entry)": "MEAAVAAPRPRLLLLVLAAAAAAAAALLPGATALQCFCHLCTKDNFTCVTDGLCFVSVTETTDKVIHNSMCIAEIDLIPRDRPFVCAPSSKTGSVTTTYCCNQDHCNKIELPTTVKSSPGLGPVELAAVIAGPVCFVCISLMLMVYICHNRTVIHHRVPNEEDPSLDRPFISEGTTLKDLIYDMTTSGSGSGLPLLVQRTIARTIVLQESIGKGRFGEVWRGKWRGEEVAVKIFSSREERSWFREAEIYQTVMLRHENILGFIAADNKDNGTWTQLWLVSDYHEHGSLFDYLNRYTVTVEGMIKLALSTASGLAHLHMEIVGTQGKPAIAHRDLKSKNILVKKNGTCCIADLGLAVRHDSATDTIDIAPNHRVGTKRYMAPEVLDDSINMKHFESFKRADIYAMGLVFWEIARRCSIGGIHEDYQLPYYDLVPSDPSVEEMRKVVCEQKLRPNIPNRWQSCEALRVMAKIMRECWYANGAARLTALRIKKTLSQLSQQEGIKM", "assay": "Inhibition of ALK5 (unknown origin) at 1 uM"}, "[3]": {"target": "Fibroblast growth factor receptor 4 (Homo sapiens) (UniProt P22455)", "sequence (P22455 22-802 limits assumed)": "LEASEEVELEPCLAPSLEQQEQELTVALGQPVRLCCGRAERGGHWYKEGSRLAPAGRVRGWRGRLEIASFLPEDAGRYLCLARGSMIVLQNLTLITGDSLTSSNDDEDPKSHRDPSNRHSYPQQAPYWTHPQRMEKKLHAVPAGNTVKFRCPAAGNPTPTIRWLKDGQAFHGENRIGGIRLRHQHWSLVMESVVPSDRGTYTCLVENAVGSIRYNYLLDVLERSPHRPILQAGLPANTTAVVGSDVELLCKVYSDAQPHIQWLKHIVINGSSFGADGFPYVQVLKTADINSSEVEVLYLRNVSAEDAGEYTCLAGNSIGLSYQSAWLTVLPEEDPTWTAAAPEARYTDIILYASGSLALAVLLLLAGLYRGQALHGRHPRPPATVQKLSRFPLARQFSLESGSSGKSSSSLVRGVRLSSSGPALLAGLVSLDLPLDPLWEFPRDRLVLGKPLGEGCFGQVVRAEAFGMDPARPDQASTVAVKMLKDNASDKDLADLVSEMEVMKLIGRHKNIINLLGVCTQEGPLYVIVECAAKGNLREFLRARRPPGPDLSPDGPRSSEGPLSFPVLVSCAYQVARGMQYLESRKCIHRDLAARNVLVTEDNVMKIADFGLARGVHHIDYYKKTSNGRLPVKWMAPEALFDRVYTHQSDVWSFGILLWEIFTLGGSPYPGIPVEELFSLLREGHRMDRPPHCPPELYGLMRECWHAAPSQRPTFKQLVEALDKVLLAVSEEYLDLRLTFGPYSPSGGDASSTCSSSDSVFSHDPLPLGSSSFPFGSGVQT", "assay": "Inhibition of FGFR4 (unknown origin) at 1 uM"}, "[4]": {"target": "Tyrosine-protein kinase JAK2 (Homo sapiens) (UniProt O60674)", "assay": "Inhibition of JAK2 (unknown origin) at 1 uM"}, "[5]": {"target": "Calcium/calmodulin-dependent protein kinase type 1B (Homo sapiens) (UniProt Q6P2M8)", "assay": "Inhibition of CAMK1B (unknown origin) at 1 uM"}, "[6]": {"target": "Casein kinase I isoform epsilon (Homo sapiens) (UniProt P49674)", "sequence (P49674 whole entry, looked up, canonical isoform)": "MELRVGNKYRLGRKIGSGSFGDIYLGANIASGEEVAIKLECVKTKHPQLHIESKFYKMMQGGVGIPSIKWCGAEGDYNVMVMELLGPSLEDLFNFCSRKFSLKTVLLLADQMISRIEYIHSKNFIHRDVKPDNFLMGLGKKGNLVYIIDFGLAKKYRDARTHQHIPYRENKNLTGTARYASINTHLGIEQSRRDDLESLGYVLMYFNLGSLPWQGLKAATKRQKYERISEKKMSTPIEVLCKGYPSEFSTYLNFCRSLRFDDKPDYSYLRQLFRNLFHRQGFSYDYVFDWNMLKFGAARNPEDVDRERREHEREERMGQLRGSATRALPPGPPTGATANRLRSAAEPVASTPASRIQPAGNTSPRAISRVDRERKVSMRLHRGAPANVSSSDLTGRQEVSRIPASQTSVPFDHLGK", "assay": "Inhibition of CK1E (unknown origin) at 1 uM"}, "[7]": {"target": "Protein kinase C beta type (Homo sapiens) (UniProt P05771)", "assay": "Inhibition of PKCb2 (unknown origin) at 1 uM"}, "[8]": {"target": "Tyrosine-protein kinase SYK (Homo sapiens) (UniProt P43405)", "assay": "Inhibition of SYK (unknown origin) at 1 uM"}, "[9]": {"target": "ALK tyrosine kinase receptor (Homo sapiens) (UniProt Q9UM73)", "assay": "Inhibition of ALK (unknown origin) at 1 uM"}, "[10]": {"target": "Calcium/calmodulin-dependent protein kinase kinase 1 (Homo sapiens) (UniProt Q8N5S9)", "assay": "Inhibition of CAMKK1 (unknown origin) at 1 uM"}, "[11]": {"assay": "Cmax in Sprague-Dawley rat at 50 mg/kg, po", "type": "ADME, organism-based", "design": "dose 50 mg/kg, route po", "conditions": "in vivo"}, "[12]": {"target": "Serine/threonine-protein kinase MAK (Homo sapiens) (UniProt P20794)", "assay": "Inhibition of MAK (unknown origin) at 1 uM"}, "[13]": {"target": "Receptor-interacting serine/threonine-protein kinase 3 (Homo sapiens) (UniProt Q9Y572)", "assay": "Inhibition of RIPK3 (unknown origin) at 1 uM"}, "[14]": {"assay": "Protein binding in Sprague-Dawley rat plasma by equilibrium dialysis", "type": "ADME, cell-free", "conditions": "read-out: PPB (converted)"}, "[15]": {"target": "NUAK family SNF1-like kinase 2 (Homo sapiens) (UniProt Q9H093)", "assay": "Inhibition of SNARK (unknown origin) at 1 uM"}, "[16]": {"assay": "Metabolic stability in human liver microsomes assessed as rate constant", "type": "ADME, Microsome"}, "[17]": {"target": "Cytoplasmic tyrosine-protein kinase BMX (Homo sapiens) (UniProt P51813)", "assay": "Inhibition of BMX (unknown origin) at 1 uM"}, "[18]": {"target": "Serine/threonine-protein kinase PAK 4 (Homo sapiens) (UniProt O96013)", "assay": "Inhibition of PAK4 (unknown origin) at 1 uM"}, "[19]": {"target": "Serine/threonine-protein kinase SIK2 (Homo sapiens) (UniProt Q9H0K1)", "assay": "Inhibition of SIK2 (unknown origin) at 1 uM"}, "[20]": {"target": "Glycogen synthase kinase-3 alpha (Homo sapiens) (UniProt P49840)", "sequence (P49840 2-483 limits assumed)": "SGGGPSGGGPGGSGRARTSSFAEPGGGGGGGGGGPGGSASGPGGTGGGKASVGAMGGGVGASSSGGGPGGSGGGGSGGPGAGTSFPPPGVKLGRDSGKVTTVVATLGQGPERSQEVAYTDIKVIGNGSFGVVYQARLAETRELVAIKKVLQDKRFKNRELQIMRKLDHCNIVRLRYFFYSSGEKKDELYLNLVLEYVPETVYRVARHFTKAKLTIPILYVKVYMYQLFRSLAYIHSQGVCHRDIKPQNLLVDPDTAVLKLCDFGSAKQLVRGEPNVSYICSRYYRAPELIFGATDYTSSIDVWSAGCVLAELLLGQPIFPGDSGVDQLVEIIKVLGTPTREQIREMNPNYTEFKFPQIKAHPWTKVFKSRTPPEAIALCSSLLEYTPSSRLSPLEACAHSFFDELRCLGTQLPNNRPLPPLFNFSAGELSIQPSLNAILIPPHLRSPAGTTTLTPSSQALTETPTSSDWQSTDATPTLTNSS", "assay": "Inhibition of GSK3A (unknown origin) at 1 uM"}, "[21]": {"assay": "Protein binding in ICR mouse plasma assessed as fraction unbound by equilibrium dialysis", "type": "ADME, cell-free"}, "[22]": {"target": "Serine/threonine-protein kinase PAK 2 (Homo sapiens) (UniProt Q13177)", "assay": "Inhibition of PAK2 (unknown origin) at 1 uM"}, "[23]": {"target": "Mitogen-activated protein kinase 13 (Homo sapiens) (UniProt O15264)", "assay": "Inhibition of p38delta (unknown origin) at 1 uM"}, "[24]": {"target": "Non-receptor tyrosine-protein kinase TYK2 (Homo sapiens) (UniProt P29597)", "assay": "Inhibition of TYK2 (unknown origin) at 1 uM"}, "[25]": {"target": "Lymphokine-activated killer T-cell-originated protein kinase (Homo sapiens) (UniProt Q96KB5)", "sequence (Q96KB5 whole entry)": "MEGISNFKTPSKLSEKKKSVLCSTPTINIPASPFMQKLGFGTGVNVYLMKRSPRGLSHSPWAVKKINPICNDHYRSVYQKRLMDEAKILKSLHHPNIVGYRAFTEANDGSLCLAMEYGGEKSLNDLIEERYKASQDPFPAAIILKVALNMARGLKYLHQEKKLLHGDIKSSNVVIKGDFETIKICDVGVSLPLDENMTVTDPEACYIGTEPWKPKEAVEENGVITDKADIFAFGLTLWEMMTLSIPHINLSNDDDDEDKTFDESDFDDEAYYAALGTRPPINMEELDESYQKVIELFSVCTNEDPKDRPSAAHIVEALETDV", "assay": "Inhibition of PBK (unknown origin) at 1 uM"}, "[26]": {"target": "Dual specificity mitogen-activated protein kinase kinase 4 (Homo sapiens) (UniProt P45985)", "assay": "Inhibition of MKK4 (unknown origin) at 1 uM"}, "[27]": {"target": "Receptor-type tyrosine-protein kinase FLT3 (Homo sapiens) (UniProt P36888)", "assay": "Inhibition of FLT3 (unknown origin) at 1 uM"}, "[28]": {"target": "Dual specificity testis-specific protein kinase 1 (Homo sapiens) (UniProt Q15569)", "sequence (Q15569 whole entry, looked up)": "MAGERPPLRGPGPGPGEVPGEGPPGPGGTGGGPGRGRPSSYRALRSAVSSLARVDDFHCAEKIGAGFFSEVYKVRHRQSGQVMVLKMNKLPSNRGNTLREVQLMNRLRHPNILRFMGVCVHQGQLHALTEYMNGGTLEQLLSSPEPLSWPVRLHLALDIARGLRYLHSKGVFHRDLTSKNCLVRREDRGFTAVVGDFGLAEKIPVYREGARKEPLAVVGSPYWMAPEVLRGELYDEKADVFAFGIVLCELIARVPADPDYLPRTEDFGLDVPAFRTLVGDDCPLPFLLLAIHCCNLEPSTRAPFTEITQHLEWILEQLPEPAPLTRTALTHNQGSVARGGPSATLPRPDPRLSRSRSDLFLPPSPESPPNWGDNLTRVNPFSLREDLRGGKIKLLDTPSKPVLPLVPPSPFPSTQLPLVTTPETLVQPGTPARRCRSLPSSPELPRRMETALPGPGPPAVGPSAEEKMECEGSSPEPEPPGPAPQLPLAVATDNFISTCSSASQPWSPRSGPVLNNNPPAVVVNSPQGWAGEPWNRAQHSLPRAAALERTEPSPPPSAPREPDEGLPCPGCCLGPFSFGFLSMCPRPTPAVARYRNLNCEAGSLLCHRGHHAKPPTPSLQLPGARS", "assay": "Inhibition of TESK1 (unknown origin) at 1 uM"}, "[29]": {"target": "CDK7/Cyclin H/MNAT1 (Homo sapiens) (UniProt P51946+P50613+P51948)", "assay": "Inhibition of CDK7/cyclin-H/MNAT1 (unknown origin) at 1 uM", "type": "protein-complex assay"}, "[30]": {"target": "Phosphorylase b kinase gamma catalytic chain, skeletal muscle/heart isoform (Homo sapiens) (UniProt Q16816)", "assay": "Inhibition of PHKgamma1 (unknown origin) at 1 uM"}, "[31]": {"target": "Bone morphogenetic protein receptor type-2 (Homo sapiens) (UniProt Q13873)", "assay": "Inhibition of BMPR2 (unknown origin) at 1 uM"}, "HCT-116 [32]": {"system": "HCT-116", "assay": "Antitumor immunity in BALB/c mouse xenografted with human HCT-116 cells assessed as early Treg cells in spleen by propidium iodide staining based flow cytometry analysis (reference value: 9.33 %)", "type": "functional"}, "[33]": {"target": "G protein-coupled receptor kinase 3 (Homo sapiens) (UniProt P35626)", "assay": "Inhibition of GRK3 (unknown origin) at 1 uM"}, "[34]": {"target": "Tyrosine-protein kinase JAK1 (Homo sapiens) (UniProt P23458)", "assay": "Inhibition of JAK1 (unknown origin) at 1 uM"}, "[35]": {"target": "Activin receptor type-1B (Homo sapiens) (UniProt P36896)", "assay": "Inhibition of ALK4 (unknown origin) at 1 uM"}, "[36]": {"target": "Mitogen-activated protein kinase 11 (Homo sapiens) (UniProt Q15759)", "sequence (Q15759 whole entry)": "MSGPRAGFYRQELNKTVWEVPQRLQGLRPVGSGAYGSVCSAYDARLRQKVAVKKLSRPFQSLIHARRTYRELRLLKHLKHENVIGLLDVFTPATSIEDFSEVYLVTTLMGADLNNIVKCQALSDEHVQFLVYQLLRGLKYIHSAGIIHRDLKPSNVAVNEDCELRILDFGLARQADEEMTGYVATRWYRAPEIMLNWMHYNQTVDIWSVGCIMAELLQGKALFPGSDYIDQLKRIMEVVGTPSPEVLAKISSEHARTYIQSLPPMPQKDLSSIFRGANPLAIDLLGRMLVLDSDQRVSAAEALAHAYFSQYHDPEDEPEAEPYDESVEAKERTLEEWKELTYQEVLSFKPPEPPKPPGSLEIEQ", "assay": "Inhibition of p38beta (unknown origin) at 1 uM"}, "[37]": {"target": "Receptor tyrosine-protein kinase erbB-4 (Homo sapiens) (UniProt Q15303)", "assay": "Inhibition of ERBB4 (unknown origin) at 1 uM"}, "[38]": {"target": "Ephrin type-B receptor 2 (Homo sapiens) (UniProt P29323)", "assay": "Inhibition of EPHB2 (unknown origin) at 1 uM"}, "[39]": {"target": "Tyrosine-protein kinase ABL1 (Homo sapiens) (UniProt P00519)", "assay": "Inhibition of ABL1 (unknown origin) at 1 uM"}, "[40]": {"target": "Dual specificity tyrosine-phosphorylation-regulated kinase 3 (Homo sapiens) (UniProt O43781)", "sequence (O43781 whole entry)": "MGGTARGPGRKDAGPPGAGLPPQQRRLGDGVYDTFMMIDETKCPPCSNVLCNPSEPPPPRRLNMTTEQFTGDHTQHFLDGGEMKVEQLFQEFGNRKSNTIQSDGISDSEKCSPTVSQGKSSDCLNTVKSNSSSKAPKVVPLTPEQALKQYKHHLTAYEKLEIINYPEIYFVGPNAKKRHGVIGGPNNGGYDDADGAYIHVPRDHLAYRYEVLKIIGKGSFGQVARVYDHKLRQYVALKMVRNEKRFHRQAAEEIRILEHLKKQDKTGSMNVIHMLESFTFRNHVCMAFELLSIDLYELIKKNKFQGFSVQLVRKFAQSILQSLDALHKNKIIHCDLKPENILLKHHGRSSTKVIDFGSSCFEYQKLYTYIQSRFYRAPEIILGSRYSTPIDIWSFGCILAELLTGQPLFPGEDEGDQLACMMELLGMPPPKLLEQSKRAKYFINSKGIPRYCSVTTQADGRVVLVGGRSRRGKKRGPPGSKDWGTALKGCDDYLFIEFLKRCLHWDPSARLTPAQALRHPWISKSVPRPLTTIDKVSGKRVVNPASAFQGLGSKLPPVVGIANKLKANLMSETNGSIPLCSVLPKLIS", "assay": "Inhibition of DYRK3 (unknown origin) at 1 uM"}, "[41]": {"target": "Serine/threonine-protein kinase ULK3 (Homo sapiens) (UniProt Q6PHR2)", "assay": "Inhibition of ULK3 (unknown origin) at 1 uM"}, "[42]": {"target": "STE20/SPS1-related proline-alanine-rich protein kinase (Homo sapiens) (UniProt Q9UEW8)", "assay": "Inhibition of STK39 (unknown origin) at 1 uM"}, "HCT-116 [43]": {"system": "HCT-116", "assay": "Antitumor immunity in BALB/c mouse xenografted with human HCT-116 cells assessed as early Treg cells in tumor-draining lymph nodes by propidium iodide staining based flow cytometry analysis (reference value: 7.24 %)", "type": "functional"}, "[44]": {"target": "Dual specificity tyrosine-phosphorylation-regulated kinase 4 (Homo sapiens) (UniProt Q9NR20)", "assay": "Inhibition of DYRK4 (unknown origin) at 1 uM"}}, "note": "The source made the active and inactive calls. No cut-off for these calls is given here."}
{"smiles": "OCCOCc1cn(CCNc2nonc2/C(=N/O)Nc2ccc(F)c(Br)c2)nn1", "values": [{"measurement": "inhibition", "setting": "[1]", "result": "inactive"}, {"measurement": "inhibition", "setting": "[2]", "result": "inactive"}, {"measurement": "inhibition", "setting": "[3]", "result": "inactive"}, {"measurement": "inhibition", "setting": "[4]", "result": "inactive"}, {"measurement": "inhibition", "setting": "[5]", "result": "inactive"}, {"measurement": "inhibition", "setting": "[6]", "result": "inactive"}, {"measurement": "inhibition", "setting": "[7]", "result": "inactive"}, {"measurement": "inhibition", "setting": "[8]", "result": "inactive"}, {"measurement": "inhibition", "setting": "[9]", "result": "inactive"}, {"measurement": "inhibition", "setting": "[10]", "result": "inactive"}, {"measurement": "Cmax", "setting": "[11]", "result": 1040, "unit": "ng/mL"}, {"measurement": "inhibition", "setting": "[12]", "result": "inactive"}, {"measurement": "inhibition", "setting": "[13]", "result": "inactive"}, {"measurement": "fraction unbound", "setting": "[14]", "result": 0.0672}, {"measurement": "inhibition", "setting": "[15]", "result": "inactive"}, {"measurement": "k el", "setting": "[16]", "result": 0.00025, "unit": "s⁻¹"}, {"measurement": "inhibition", "setting": "[17]", "result": "inactive"}, {"measurement": "inhibition", "setting": "[18]", "result": "inactive"}, {"measurement": "inhibition", "setting": "[19]", "result": "inactive"}, {"measurement": "inhibition", "setting": "[20]", "result": "inactive"}, {"measurement": "fraction unbound", "setting": "[21]", "result": 0.0968}, {"measurement": "inhibition", "setting": "[22]", "result": "inactive"}, {"measurement": "inhibition", "setting": "[23]", "result": "inactive"}, {"measurement": "inhibition", "setting": "[24]", "result": "inactive"}, {"measurement": "inhibition", "setting": "[25]", "result": "inactive"}, {"measurement": "inhibition", "setting": "[26]", "result": "inactive"}, {"measurement": "inhibition", "setting": "[27]", "result": "inactive"}, {"measurement": "inhibition", "setting": "[28]", "result": "inactive"}, {"measurement": "inhibition", "setting": "[29]", "result": "inactive"}, {"measurement": "inhibition", "setting": "[30]", "result": "inactive"}, {"measurement": "inhibition", "setting": "[31]", "result": "inactive"}, {"measurement": "Activity", "setting": "HCT-116 [32]", "result": 4.54, "unit": "%"}, {"measurement": "inhibition", "setting": "[33]", "result": "inactive"}, {"measurement": "inhibition", "setting": "[34]", "result": "inactive"}, {"measurement": "inhibition", "setting": "[35]", "result": "inactive"}, {"measurement": "inhibition", "setting": "[36]", "result": "inactive"}, {"measurement": "inhibition", "setting": "[37]", "result": "inactive"}, {"measurement": "inhibition", "setting": "[38]", "result": "inactive"}, {"measurement": "inhibition", "setting": "[39]", "result": "inactive"}, {"measurement": "inhibition", "setting": "[40]", "result": "inactive"}, {"measurement": "inhibition", "setting": "[41]", "result": "inactive"}, {"measurement": "inhibition", "setting": "[42]", "result": "inactive"}, {"measurement": "Activity", "setting": "HCT-116 [43]", "result": 3.84, "unit": "%"}, {"measurement": "inhibition", "setting": "[44]", "result": "inactive"}]}
